Numbering of substitutions follows the chain as printed.
Columns and labels:
Test in all cases: FRET by acceptor photobleaching, DHE donor to GFP acceptor, fixed transfected HEK293-FT cells
Assay type in all cases: cell-based
[1] = target: T1, CUP-1-GFP (Cholesterol Uptake Protein-1; ZK721.1/tag-130) (Caenorhabditis elegans, UniProt Q9GYF0, Y576G); conditions: 5 uM DHE, 35 min, 37 °C; transmembrane CRAC motif mutant
T1 construct: gene chup-1; full-length CUP-1 (stop codon removed) with C-terminal EGFP (pEGFP-N1), transiently expressed in HEK293-FT cells; GFP is the FRET acceptor
T1 sequence (Q9GYF0 19-756 Y576G): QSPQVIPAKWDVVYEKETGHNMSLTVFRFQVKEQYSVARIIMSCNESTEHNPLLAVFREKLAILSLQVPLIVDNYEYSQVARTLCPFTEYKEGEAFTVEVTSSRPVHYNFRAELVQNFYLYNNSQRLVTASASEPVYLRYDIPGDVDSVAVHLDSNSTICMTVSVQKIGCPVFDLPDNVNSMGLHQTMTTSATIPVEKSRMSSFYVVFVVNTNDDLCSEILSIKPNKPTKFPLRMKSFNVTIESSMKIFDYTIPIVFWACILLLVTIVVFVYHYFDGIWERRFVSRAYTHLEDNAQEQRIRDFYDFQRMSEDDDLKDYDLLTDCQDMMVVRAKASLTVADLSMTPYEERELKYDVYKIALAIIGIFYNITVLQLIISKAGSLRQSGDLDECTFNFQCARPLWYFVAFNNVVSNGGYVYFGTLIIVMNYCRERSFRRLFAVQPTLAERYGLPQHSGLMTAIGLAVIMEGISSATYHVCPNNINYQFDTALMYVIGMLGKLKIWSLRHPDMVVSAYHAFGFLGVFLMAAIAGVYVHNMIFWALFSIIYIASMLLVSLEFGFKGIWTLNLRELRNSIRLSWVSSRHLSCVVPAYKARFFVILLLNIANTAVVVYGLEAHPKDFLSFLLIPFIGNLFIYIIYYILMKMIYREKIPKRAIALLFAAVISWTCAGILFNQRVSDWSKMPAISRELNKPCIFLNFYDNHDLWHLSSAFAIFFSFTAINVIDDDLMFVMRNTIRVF

[2] = target: T2, CUP-1-GFP (Cholesterol Uptake Protein-1; ZK721.1/tag-130) (Caenorhabditis elegans, UniProt Q9GYF0); conditions: 5 uM DHE, 35 min, 37 °C; soluble GFP control
T2 construct: gene chup-1; full-length CUP-1 (stop codon removed) with C-terminal EGFP (pEGFP-N1), transiently expressed in HEK293-FT cells
T2 sequence (Q9GYF0 19-756): T1 sequence (Q9GYF0 19-756 Y576G) with G558Y

[3] = target: T3, CUP-1-GFP (Cholesterol Uptake Protein-1; ZK721.1/tag-130) (Caenorhabditis elegans, UniProt Q9GYF0, Y126G); conditions: 5 uM DHE, 35 min, 37 °C; extracellular CRAC motif mutant
T3 construct: gene chup-1; full-length CUP-1 (stop codon removed) with C-terminal EGFP (pEGFP-N1), transiently expressed in HEK293-FT cells
T3 sequence (Q9GYF0 19-756 Y126G): T1 sequence (Q9GYF0 19-756 Y576G) with Y108G, G558Y

[4] = target: T4, CUP-1-GFP (Cholesterol Uptake Protein-1; ZK721.1/tag-130) (Caenorhabditis elegans, UniProt Q9GYF0, Y126G/Y576G); conditions: 5 uM DHE, 35 min, 37 °C; double CRAC mutant
T4 construct: gene chup-1; full-length CUP-1 (stop codon removed) with C-terminal EGFP (pEGFP-N1), transiently expressed in HEK293-FT cells; GFP is the FRET acceptor
T4 sequence (Q9GYF0 19-756 Y126G/Y576G): T1 sequence (Q9GYF0 19-756 Y576G) with Y108G

CC(C)[C@@H](C)/C=C/[C@@H](C)[C@H]1CC[C@H]2C3=CC=C4C[C@@H](O)CC[C@]4(C)C3=CC[C@]12C [DHE, Dehydroergosterol] was tested, and the FRETeff [1] was 16.7%, the FRETeff [2] was greater than 28% and the FRETeff [3] was “Mutagenization of the extracellular CRAC motif did not result in a statistically significant reduction”. For the same molecule, the FRETeff [4] was 17.8%.

Source: article PMC3313951, “CUP-1 Is a Novel Protein Involved in Dietary Cholesterol Uptake in Caenorhabditis elegans” (PLoS ONE, 2012)
